Assay results: patent US20110230430A1, “SAPONIN EXTRACT FROM SAPONARIA SPP. AND USES THEREOF” (NATIONAL RESEARCH COUNCIL OF CANADA, priority 2008, published 2011)

Assays:
[1] = Haemolytic properties of selected saponins; settings: saponins purified to more than 75%
From the text: The haemolytic properties of the various saponins that have been purified to more than 75% have been examined and are provided in Table 39. Haemolytic properties are not directly related to anti-cancer or apoptosis inducing properties of saponins but may be related to toxicity and utility of the saponins for preparation of injectable formulations. Saponins most suitable for injectable formulation will be less haemolytic. QS21, a purified Quillaja saponaria saponin with known haemolytic activity is used as reference.

[2] = test system: PC-3 cells; assay: Dual Sensor: MitoCasp Assay in PC-3 prostate cancer cells; format: cell-based, human
From the text: (§1) Techniques to assay enzymatic and signaling processes involved in apoptosis have been developed as standard protocols. One example of an early step in apoptosis, is the release of cytochrome C from mitochondria and the activation of caspase-3. Induction of the caspases (a series of cytosolic proteases) is one of the most consistently observed features of apoptosis. Caspases are a family of proteolytic enzymes that transmit the apoptotic signal using a proteolytic cascade. […] Caspases 3 and 7 are effector caspases, central to the caspase cascade pathways. In particular, caspase-3 plays a central role in the process. When caspases are activated, they cleave target proteins; one of the most important of these is poly-(ADP-ribose) polymerase (PARP), which is a protein located in the nucleus. Therefore, assays detecting release of cytochrome C, detecting caspase-3 activity and detecting PARP degradation are effective determinants of apoptosis. The loss of mitochondrial membrane potential is known to occur during apoptosis. To analyze mitochondrial membrane potential, a cationic dye may be used which accumulates in the mitochondria of healthy cells. Collapse of the mitochondrial membrane potential during apoptosis prevents the dye from accumulating in the mitochondria resulting in a decrease in fluorescent intensity that can be detected with flow cytometry. Dual Sensor: MitoCasp™ (Cell Technology) used herein in the Examples is an assay that measures caspase 3/7 activity and cells with decreased mitochondrial membrane potential. In this assay, caspase 3/7 activity is detected using a cell permeable carboxyfluorescein labeled caspase inhibitor, which binds covalently to active caspases 3 and 7. Cells that contain bound inhibitor are detected by an increase in fluorescence when samples are analyzed by flow cytometry.
PC-3 cells (ATCC #CRL-1435) were derived from a prostate adenocarcinoma (Kaighn et al., 1979). They were maintained in RPMI 1640 medium (Gibco) supplemented with 10% fetal bovine serum (Cansera), 100 U/mL penicillin, and 100 μg/mL streptomycin and 0.25 μg/mL amphotericin B. Cultures were maintained in medium at 37° C. with 5% CO2 and 100% relative humidity.
To harvest adherent cells, the existing medium was removed and cells were dissociated with 0.25% (w/v) trypsin-EDTA·4Na in Hank's Balanced Salt Solution (Gibco). To block the proteolytic action of the trypsin, the cells were resuspended in an excess of media containing fetal bovine serum. Cells were transferred to a 15 mL conical centrifuge tube and pelleted by centrifugation at 500×g for 5 min. Cell pellets were resuspended in media, and an aliquot of the cells were seeded into a new flask.
PC-3 cells were seeded in tissue culture flasks with regular growth medium and maintained under normal conditions. […] Following incubation under normal growth conditions for the specified time, cells were washed once with cold phosphate-buffered saline (PBS) (137 mM NaCl, 2.7 mM KCl, 4.3 mM Na2HPO4.7H2O, 1.4 mM KH2PO4) and harvested as previously described. Assays were carried out according to instructions given in kits. All Flow Cytometry was performed using a Coulter Epics XL (Beckman).
(§2) Following centrifugation at 500×g for 5 min, cell pellets were resuspended in PBS at 3.3×10^6 cells/mL. 300 μL cell suspension was mixed with 10 μL each of 30X Mitochondria Membrane Potential Dye and 30X Caspase 3/7 detection reagent. Following incubation for 60 min under normal growth conditions, cells were washed twice with 1× wash buffer and resuspended in 0.5 mL 1× wash buffer. Samples were analyzed by flow cytometry measuring the fluorescence emissions from 515 nm to 530 nm for caspase detection, and 574 nm to 600 nm for mitochondrial membrane potential detection.

[3] = test system: PC-3, MDA-MB-231, WiDr, and HT-29 Cells; assay: Order of apoptosis potency across cancer cell lines; parameters: species or system human; settings: rank based on responses observed in PC-3, MDA-MB-231, WiDr, and HT-29 Cells; 1 = most active
[4] = test system: MDA-MB-231 cells; assay: Dual Sensor: MitoCasp Assay in MDA-MB-231 breast cancer cells; format: cell-based, human
From the text: as §1, §2
The MDA-MB-231 cell line (ATCC #HTB-26) was derived from the pleural effusion of a patient with a breast adenocarcinoma (Cailleau et al., 1974). The cells were maintained in RPMI 1640 (Gibco) supplemented with 10% fetal bovine serum (Camera), 100 U/mL penicillin, 100 μg/mL streptomycin and 0.25 μg/mL amphotericin B. Cultures were maintained in medium at 37° C. with 5% CO2 and 100% relative humidity. […]

[5] = 5.0 μM saponin, 36 hours (comparison of saponins)

## Segetoside H [PC1448]
[1]
  HD50: 13.8 µM
[2]; 2.5 μM PC1448, 37 hr
  Cells with caspase 3/7 activity: 5.6%
  Cells with decreased mitochondrial membrane potential: 6.0%
[2]; 5.0 μM PC1448, 37 hr
  Cells with caspase 3/7 activity: 35.1%
  Cells with decreased mitochondrial membrane potential: 9.9%
[2]; 7 μM PC1448, 26 hr
  Cells with caspase 3/7 activity: 77.8%
  Cells with decreased mitochondrial membrane potential: 24.8%
[2]; 10 μM PC1448, 26 hr
  Cells with caspase 3/7 activity: 86.2%
  Cells with decreased mitochondrial membrane potential: 30.8%
[2]; 10.0 μM PC1448, 37 hr
  Cells with caspase 3/7 activity: 76.8%
  Cells with decreased mitochondrial membrane potential: 26.7%
[2]; 14 μM PC1448, 05 hr
  Cells with caspase 3/7 activity: 13.0%
  Cells with decreased mitochondrial membrane potential: 38.0%
[2]; 14 μM PC1448, 10 hr
  Cells with caspase 3/7 activity: 29.2%
  Cells with decreased mitochondrial membrane potential: 72.5%
[2]; 14 μM PC1448, 15 hr
  Cells with caspase 3/7 activity: 42.9%
  Cells with decreased mitochondrial membrane potential: 89.4%
[2]; 14 μM PC1448, 20 hr
  Cells with caspase 3/7 activity: 57.2%
  Cells with decreased mitochondrial membrane potential: 94.1%
[2]; 14 μM PC1448, 20 hr (4.5% to 94.1%)
  Increase in cells with a decreased mitochondrial membrane potential vs untreated: ~20 fold
[2]; 14 μM PC1448, 26 hr
  Cells with caspase 3/7 activity: 84.0%
  Cells with decreased mitochondrial membrane potential: 52.0%
[2]; 14 μM PC1448, over the 20 hr exposure period
  Increase in cells with measurable caspase 3/7 activity vs untreated: approximately a doubling
[2]; 15.0 μM PC1448, 37 hr
  Cells with caspase 3/7 activity: 72.9%
  Cells with decreased mitochondrial membrane potential: 32.3%
[2]; 17 μM PC1448, 26 hr
  Cells with caspase 3/7 activity: 77.7%
  Cells with decreased mitochondrial membrane potential: 41.9%
[2]; 37 hours
  Concentration of greatest effect on apoptosis: above 10 μM
  Induction of apoptosis at concentrations as low as: 5.0 µM
[2]; PC1448 7-17 μM, 26 hr
  Concentration with the greatest change in cells with decreased mitochondrial membrane potential: 14 µM
  Concentration with the largest increase in caspase 3/7 activity: 10 µM
[2]; PC1448 7-17 μM, 26 hr, all treated cells
  Increase in caspase 3/7 activity vs untreated: 9 fold
[3]
  Order of Apoptosis Potency: 7
[4]; 2.5 μM PC1448, 36 hr
  Cells with caspase 3/7 activity: 19.3%
  Cells with decreased mitochondrial membrane potential: 9.9%
[4]; 5.0 μM PC1448, 36 hr
  Cells with caspase 3/7 activity: 25.8%
  Cells with decreased mitochondrial membrane potential: 12.6%
[4]; [5]
  Cells with caspase 3/7 activity: 12.8%
  Cells with decreased mitochondrial membrane potential: 5.3%
[4]; 10.0 μM PC1448, 36 hr
  Cells with caspase 3/7 activity: 40.0%
  Cells with decreased mitochondrial membrane potential: 17.9%
[4]; 15.0 μM PC1448, 36 hr
  Cells with caspase 3/7 activity: 40.9%
  Cells with decreased mitochondrial membrane potential: 20.8%
[4]; 36 hours
  Concentration of greatest effect on apoptosis: above 10 μM
  Induction of apoptosis at concentrations as low as: 5.0 µM
